Data on 17 molecules can be found in PubChem BioAssay (NCI).

Values joined by “and” are separate entries in the source; they are usually repeats but may differ in a detail not shown here. Identical values can stand only once.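 Exposure lasted 48 hours, with cells grown in 96-well plates and compounds tested at five concentrations. Abbreviation: GI50, concentration required for 50% inhibition of growth. TGI denotes the concentration required for complete inhibition of growth.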

Test systems include LOX IMVI melanoma; SK-MEL-28 melanoma; KM12 colon; HCC-2998 colon; MALME-3M melanoma; CAKI-1 renal; OVCAR-5 ovarian; COLO 205 colon; SR leukemia; UO-31 renal.
Experiment in all cases: NCI-60 cell line screen, 48 h

For `Cn1c(I)c(C#CCO[Si](C)(C)C(C)(C)C)c(=O)[nH]c1=O`, the GI50 in the assay with LOX IMVI melanoma was 1.83 µM; in the assay on SK-MEL-28 melanoma, 2.95 µM; with KM12 colon, 25.9 µM; in the assay on HCC-2998 colon, 18.6 µM; with MALME-3M melanoma, 1.78 µM; with CAKI-1 renal, 3.29 µM. Moreover, the GI50 was 18 µM with OVCAR-5 ovarian, 6.41 µM with COLO 205 colon, 1.53 µM in the assay with SR leukemia and 14.6 µM with UO-31 renal. Also, the TGI in the assay on LOX IMVI melanoma was 4.42 µM; with SK-MEL-28 melanoma, 9.05 µM; in the assay on KM12 colon, more than 61.2 µM; with HCC-2998 colon, 34.7 µM; in the assay on MALME-3M melanoma it was 3.85 µM; with CAKI-1 renal, 12.6 µM. For the same molecule, the TGI in the assay with OVCAR-5 ovarian stood at 33 µM; in the assay with COLO 205 colon, 20 µM; in the assay with SR leukemia, 3.6 µM; with UO-31 renal, 28.6 µM.
As for `COC(=O)c1ccc2c(c1)nc(NC(=O)c1ccccc1)n2CCCc1ccccc1`, the GI50 with LOX IMVI melanoma was 2.63 µM; in the assay with SK-MEL-28 melanoma, 3.79 µM; in the assay on KM12 colon, 4.5 µM; in the assay with HCC-2998 colon it was 30.6 µM; with MALME-3M melanoma, 5.73 µM; with CAKI-1 renal, 3.57 µM. Moreover, the GI50 was 22.6 µM in the assay on OVCAR-5 ovarian, 3.89 µM with COLO 205 colon, 2.54 µM in the assay on SR leukemia and 4.07 µM in the assay with UO-31 renal. Also, the TGI with LOX IMVI melanoma, in the assay on SK-MEL-28 melanoma, in the assay on KM12 colon, in the assay on HCC-2998 colon, with MALME-3M melanoma and with CAKI-1 renal was more than 100 µM in each case. The TGI with OVCAR-5 ovarian, in the assay on COLO 205 colon, in the assay with SR leukemia and in the assay on UO-31 renal was more than 100 µM throughout.
Turning to `C[N+](C)(C)CC1CCCc2ccccc2C1=O` (stereo unspecified), the GI50 is 1.93 µM and 2.23 µM in the assay with LOX IMVI melanoma; 5.1 µM in the assay with KM12 colon; 2.06 µM in the assay with CAKI-1 renal. The TGI in the assay on LOX IMVI melanoma was 4.78 µM and 5.93 µM; in the assay on SK-MEL-28 melanoma, 34.5 µM; with KM12 colon it was 24.8 µM; with HCC-2998 colon, 45 µM; in the assay on MALME-3M melanoma it was 12 µM; in the assay on CAKI-1 renal it was 6.71 µM and 5.04 µM. Moreover, the TGI in the assay on OVCAR-5 ovarian amounted to 28.8 µM; in the assay with COLO 205 colon it was 42.9 µM; in the assay on SR leukemia, 8.08 µM; in the assay on UO-31 renal, 30.7 µM.
In the case of `CCN(CC)CCCN1CCc2c([nH]c3ccccc23)C1c1cccnc1` (stereo unspecified), the TGI in the assay on LOX IMVI melanoma, in the assay with SK-MEL-28 melanoma, with KM12 colon, in the assay with HCC-2998 colon, with MALME-3M melanoma and in the assay with CAKI-1 renal was more than 100 µM throughout. For the same molecule, the TGI in the assay with OVCAR-5 ovarian, with COLO 205 colon, in the assay on SR leukemia and in the assay with UO-31 renal was more than 100 µM each time.
Take `O=C(CCN(C(=O)O)S(=O)(=O)c1ccc(NC(=O)c2ccccc2)cc1)Nc1ccccc1`: the TGI in the assay on LOX IMVI melanoma is more than 71.4 µM; with SK-MEL-28 melanoma, more than 100 µM; in the assay on KM12 colon, more than 100 µM; with HCC-2998 colon it was more than 100 µM; in the assay with MALME-3M melanoma it was more than 100 µM; with CAKI-1 renal, more than 100 µM. The TGI with OVCAR-5 ovarian is more than 100 µM; with COLO 205 colon, more than 80.2 µM; with SR leukemia, more than 100 µM; with UO-31 renal, more than 100 µM.
Consider `CCOC(=O)C(C#N)C1=CC(=O)C(=O)c2ccc(OC)cc21` (stereo unspecified), for which the TGI worked out at 40.7 µM with LOX IMVI melanoma; 41.4 µM with SK-MEL-28 melanoma; 41.3 µM with KM12 colon; 29.8 µM in the assay with HCC-2998 colon; 31 µM in the assay with MALME-3M melanoma; 72.2 µM in the assay on CAKI-1 renal. The TGI was 40.5 µM in the assay with OVCAR-5 ovarian, 32.3 µM in the assay on COLO 205 colon, more than 100 µM in the assay with SR leukemia and 32 µM in the assay with UO-31 renal.
As to `Cn1cc(C2=C(c3ccc(N)cc3)C(=O)NC2=O)c2ccccc21`, the GI50 was 9.88 µM in the assay with LOX IMVI melanoma; more than 25 µM in the assay on SK-MEL-28 melanoma; 10.9 µM in the assay with KM12 colon; more than 25 µM with HCC-2998 colon; more than 25 µM in the assay on MALME-3M melanoma; more than 18.9 µM in the assay with CAKI-1 renal. Besides, the GI50 was more than 25 µM with OVCAR-5 ovarian, 11.6 µM in the assay on COLO 205 colon, 9.43 µM with SR leukemia and 16.5 µM with UO-31 renal. Moreover, the TGI in the assay with LOX IMVI melanoma, in the assay with SK-MEL-28 melanoma, in the assay with KM12 colon, with HCC-2998 colon, in the assay with MALME-3M melanoma and in the assay with CAKI-1 renal was more than 25 µM in each case. Besides, the TGI with OVCAR-5 ovarian, with COLO 205 colon, in the assay on SR leukemia and with UO-31 renal was more than 25 µM each time.
For the molecule `CCOC(=O)c1ccc(NC(=O)Oc2ccc3c(C)cc(=O)oc3c2)cc1`, the TGI in the assay with LOX IMVI melanoma is more than 100 µM; in the assay on SK-MEL-28 melanoma it was more than 100 µM; with KM12 colon, more than 100 µM; in the assay with HCC-2998 colon, 51.1 µM; with MALME-3M melanoma, more than 100 µM; in the assay on CAKI-1 renal, more than 100 µM. The TGI is more than 100 µM in the assay with OVCAR-5 ovarian, more than 100 µM with COLO 205 colon, 54.2 µM in the assay on SR leukemia and more than 100 µM in the assay with UO-31 renal.
Take `Cc1cc(C)c2c(n1)sc1c(Nc3ccc(Cl)cc3)ncnc12`: the GI50 in the assay on LOX IMVI melanoma was less than 0.01 µM; in the assay on SK-MEL-28 melanoma, 4.4 µM; in the assay with KM12 colon, 0.139 µM; with HCC-2998 colon, 7.4 µM; with MALME-3M melanoma it was 19.3 µM; with CAKI-1 renal, less than 0.01 µM. For the same molecule, the GI50 in the assay with OVCAR-5 ovarian was less than 0.0125 µM; in the assay on COLO 205 colon it was 0.0314 µM; in the assay on SR leukemia, less than 0.01 µM; in the assay with UO-31 renal, less than 0.01 µM. For the same molecule, the TGI is more than 100 µM with LOX IMVI melanoma; more than 100 µM in the assay with SK-MEL-28 melanoma; more than 100 µM in the assay on KM12 colon; more than 100 µM in the assay with HCC-2998 colon; more than 100 µM in the assay with MALME-3M melanoma; more than 27.6 µM in the assay on CAKI-1 renal. For the same molecule, the TGI with OVCAR-5 ovarian was more than 100 µM; in the assay on COLO 205 colon, more than 100 µM; with SR leukemia, 38.6 µM.
For `COC(=O)C(C(=O)c1ccccc1)C(C(=O)C(=O)Nc1ccc(OC)cc1OC)C(=O)C(=O)c1ccc(C)cc1` (stereo unspecified), the TGI with LOX IMVI melanoma, in the assay on SK-MEL-28 melanoma, in the assay on KM12 colon, in the assay on HCC-2998 colon, with MALME-3M melanoma and with CAKI-1 renal was more than 100 µM throughout. In addition, the TGI in the assay with OVCAR-5 ovarian, with COLO 205 colon, in the assay on SR leukemia and in the assay on UO-31 renal was more than 100 µM throughout.
Take `O=C(Nc1ccc2ncccc2c1)Nc1ccc2ncccc2c1`: the TGI with LOX IMVI melanoma, with SK-MEL-28 melanoma, in the assay with KM12 colon, with HCC-2998 colon, in the assay on MALME-3M melanoma and in the assay with CAKI-1 renal was more than 100 µM in each case. Besides, the TGI in the assay on OVCAR-5 ovarian, in the assay on COLO 205 colon, in the assay with SR leukemia and in the assay with UO-31 renal was more than 100 µM throughout.
For the molecule `CSc1nc(=O)n(CCC#N)nc1SC`, the TGI in the assay with LOX IMVI melanoma is 43.5 µM; in the assay on SK-MEL-28 melanoma, 47.8 µM; in the assay on KM12 colon it was more than 100 µM; in the assay with HCC-2998 colon it was 31.9 µM; in the assay with MALME-3M melanoma, 48.6 µM; in the assay with CAKI-1 renal, more than 100 µM. The TGI in the assay on OVCAR-5 ovarian is more than 100 µM; in the assay with COLO 205 colon, 52.8 µM; with SR leukemia it was more than 100 µM; in the assay with UO-31 renal it was more than 100 µM.
With `CCCCOC(=O)CNC(=O)OC/C=C/C#CC#C/C=C/COC(=O)NCC(=O)OCCCC`, the TGI was more than 10 µM in the assay on LOX IMVI melanoma; more than 100 µM with SK-MEL-28 melanoma; more than 100 µM in the assay with KM12 colon; more than 100 µM in the assay on HCC-2998 colon; more than 100 µM in the assay on MALME-3M melanoma; more than 100 µM in the assay with CAKI-1 renal. For the same molecule, the TGI was more than 100 µM in the assay on OVCAR-5 ovarian, more than 100 µM in the assay with COLO 205 colon, more than 10 µM in the assay on SR leukemia and more than 100 µM in the assay on UO-31 renal. Further, the GI50 in the assay with SK-MEL-28 melanoma, with KM12 colon, in the assay on HCC-2998 colon, with MALME-3M melanoma, in the assay on CAKI-1 renal and in the assay on OVCAR-5 ovarian was more than 100 µM each time. Further, the GI50 in the assay with COLO 205 colon and in the assay on UO-31 renal was more than 100 µM throughout.
With `NC(=S)N/N=C(\CC1OC(=O)c2ccccc21)c1ccc(Cl)cc1` (stereo unspecified), the TGI in the assay with LOX IMVI melanoma is 62.8 µM; with SK-MEL-28 melanoma, more than 100 µM; with KM12 colon, 52 µM; in the assay on HCC-2998 colon, 48.6 µM; in the assay on MALME-3M melanoma it was more than 100 µM; with CAKI-1 renal, 99.2 µM. The TGI was more than 100 µM in the assay with OVCAR-5 ovarian, 98.8 µM with COLO 205 colon, more than 100 µM in the assay with SR leukemia and 84.9 µM in the assay on UO-31 renal.
For `CN(C)CCNC(=O)c1cccc2ccc(-c3ccc(O)cc3)nc12`, the TGI was 3.43 µM in the assay with LOX IMVI melanoma; 11.8 µM and 16.2 µM in the assay on SK-MEL-28 melanoma; 16.8 µM and 14.9 µM in the assay on KM12 colon; 17.5 µM and 14.1 µM in the assay on HCC-2998 colon; 6.08 µM and 2.9 µM in the assay with MALME-3M melanoma; 6.53 µM and 11.3 µM in the assay on CAKI-1 renal. Moreover, the TGI with OVCAR-5 ovarian is 9.11 µM; in the assay with COLO 205 colon, 14.6 µM and 14.4 µM; in the assay with SR leukemia, 15.7 µM; in the assay on UO-31 renal, 7.35 µM and 5.12 µM. Also, the GI50 in the assay with SK-MEL-28 melanoma was 4.14 µM; with KM12 colon, 3.03 µM; in the assay on HCC-2998 colon it was 1.87 µM; in the assay with MALME-3M melanoma, 0.863 µM; in the assay on COLO 205 colon, 2.31 µM; with UO-31 renal it was 1.58 µM.
Take `COc1cccc(C2CC(C)(O)Oc3cc4c(cc32)OCO4)c1O` (stereo unspecified): the TGI with LOX IMVI melanoma was more than 100 µM; in the assay on SK-MEL-28 melanoma, more than 100 µM; in the assay with KM12 colon, 52.3 µM; with HCC-2998 colon, 51.2 µM; in the assay on MALME-3M melanoma, more than 100 µM; in the assay with CAKI-1 renal, more than 100 µM. The TGI was more than 95.7 µM in the assay on OVCAR-5 ovarian, 41.3 µM in the assay with COLO 205 colon, more than 51.7 µM with SR leukemia and 97.9 µM with UO-31 renal.
For the molecule `c1ccc2cc(-c3cc4ccccc4s3)ccc2c1`, the TGI in the assay with LOX IMVI melanoma, with SK-MEL-28 melanoma, in the assay with KM12 colon, in the assay on HCC-2998 colon, in the assay on MALME-3M melanoma and in the assay on CAKI-1 renal was more than 100 µM in each case. Moreover, the TGI in the assay with OVCAR-5 ovarian, with COLO 205 colon, in the assay on SR leukemia and in the assay with UO-31 renal was more than 100 µM throughout.
